As usually defined, the pKi is −log10 of the Ki, conventionally taken in molar units.

SMILES strings stand for the structures. pKi: −log10 of the molar value.

This is an account of results in ChEMBL document CHEMBL1134987, “Novel spirocyclic pyrrolidones as P2/P1 mimetics in potent inhibitors of HIV-1 protease” (Bioorg Med Chem Lett, 2002).

The test concerns the target Human immunodeficiency virus type 1 protease (Human immunodeficiency virus 1, UniProt Q72874). Nature of the test: The compound was tested for its inhibition against HIV-1 protease.

For the compound `COc1ccc(S(=O)(=O)N(CC2CCCC2)C[C@@H](O)CN2C(=O)[C@@H](Cc3ccccc3)C[C@@H]2Cc2ccccc2)cc1`, the pKi was 9.10.
In turn, `NC(C(=O)[C@H](Cc1ccccc1)C[C@H](O)CN1C(=O)[C@@H](Cc2ccccc2)C[C@@H]1Cc1ccccc1)[C@H]1c2ccccc2C[C@H]1O` (stereo partly specified) showed a negative logarithm of the Ki (pKi) of 10.30.
With `O=C(N[C@H]1c2ccccc2C[C@H]1O)[C@H](Cc1ccccc1)C[C@H](O)CN1C(=O)C2(CCOCC2)C[C@@H]1Cc1ccccc1`, the pKi was 7.64.
The figure for `O=C(N[C@H]1c2ccccc2C[C@H]1O)[C@H](Cc1ccccc1)C[C@H](O)CN1C(=O)C2(CCN(Cc3ccccc3)CC2)C[C@@H]1Cc1ccccc1` is 5.60; for `COc1ccc(S(=O)(=O)N(CC2CCCC2)C[C@@H](O)CN2C(=O)C3(CCCCC3)OC[C@@H]2Cc2ccccc2)cc1` it is 8.77; for `O=C(N[C@H]1c2ccccc2C[C@H]1O)[C@H](Cc1ccccc1)C[C@H](O)CN1C(=O)C2(CCCCC2)C[C@@H]1Cc1ccccc1` it is 7.30.
